Tested on: N-acetylhexosamine-dehydrogenase (N-AHDH)
Test: Action and substrate specificity of the enzyme
Assay type: biochemical, Pseudomonas sp. No. 53
Settings: in the presence of NAD+
Description: As shown in the following reaction scheme, this enzyme oxidizes N-acetylglucosamine or N-acetylgalactosamine to N-acetylglucosaminolactoneor N-acetylgalactosaminolactone in the presence of NAD^+ and, at the same time, reduces the NAD^+ to NADH. [drawing 1]
(§1) To 1.8 ml of 0.1 M glycine-sodium hydroxide buffer (pH 9.5) is added 0.1 ml of 60 mM […] solution. After keeping the mixture at 37° C. for 10 minutes, 10 microliters of enzyme solution is added, and subsequently 0.1 ml of 0.3M N-acetylglucosamine solution is mixed to start the reaction. The reaction mixture is immediately transferred into an absorbance measurement cell (1 cm path) kept at 37° C., and absorbance is measured at intervals of one minute at a wavelength of 340 nm over a period of 5 minutes or, if desired, over a longer period of time. A quantity of enzyme capable of forming one micromole of NADH per one minute is taken as "one unit".

SMILES | Action of the enzyme upon the sugar (substrate specificity)
CC(=O)N[C@H]1[C@H](O[C@H]2[C@H](O)[C@@H](NC(C)=O)C(O)O[C@@H]2CO)O[C@H](CO)[C@@H](O)[C@@H]1O (stereo partly shown) [N,N'-diacetylchitobiose] | no action at all or hardly exercises an action
CC(=O)N[C@H]1C(O)O[C@H](CO)[C@H](O)[C@@H]1O (stereo partly shown) [N-acetylgalactosamine] | oxidizes
CC(=O)N[C@H]1C(O)O[C@H](CO)[C@@H](O)[C@@H]1O (stereo partly shown) [N-acetylglucosamine] | oxidizes
CC(=O)N[C@@H]1C(O)O[C@H](CO)[C@@H](O)[C@@H]1O (stereo partly shown) [N-acetylmannosamine] | only a slight action

Same assay, conditions: in the presence of NAD+; listed as acetylchitobiose

SMILES | Action of the enzyme upon the sugar (substrate specificity)
CC(=O)N[C@H]1[C@H](O[C@H]2[C@H](O)[C@@H](NC(C)=O)C(O)O[C@@H]2CO)O[C@H](CO)[C@@H](O)[C@@H]1O (stereo partly shown) [N,N'-diacetylchitobiose] | does not act

Tested on: N-acetylhexosamine-dehydrogenase (N-AHDH)
Test: Influence of inhibitor on enzyme activity
Assay type: biochemical, Pseudomonas sp. No. 53
Settings: not given
Description: In the table presented above, enzyme activity was measured in a solution containing 2 mM of metallic ion or inhibitor. There is known no substance particularly contributing to activation and stabilization.
as §1

SMILES | Residual activity
Oc1cccc2cccnc12 [8-Hydroxyquinoline] | 110

Same assay, conditions: solution containing 2 mM of metallic ion or inhibitor

SMILES | Residual activity
[Ca+2].[Cl-].[Cl-] [CaCl2] | 95%
O=S(=O)([O-])[O-].[Cd+2] [CdSO4] | 92%
O=S(=O)([O-])[O-].[Cu+2] [CuSO4] | 94%
O=C(O)CN(CCN(CC(=O)O)CC(=O)O)CC(=O)O [EDTA] | 101%
[Cl][Hg][Cl] [HgCl2] | 35%
NC(=O)CI [Iodoacetamide] | 104%
O=S(=O)([O-])[O-].[Mn+2] [MnSO4] | 96%
[N-]=[N+]=[N-].[Na+] [NaN3] | 89%
O=C(O)c1cc[c]([Hg][Cl])cc1 [PCMB] | 97%
CCCCCCCCCCCCOS(=O)(=O)O [SDS] | 62%
O=S(=O)([O-])[O-].[Zn+2] [ZnSO4] | 95%
c1cnc2c(c1)ccc1cccnc12 [o-Phenanthroline] | 104%
c1ccc(-c2ccccn2)nc1 [α, α'-Dipyridyl] | 107%

Reference: patent publication US5068190A, “N-acetylhexosamine-dehydrogenase, process for producing same, method for the quantitative analysis of N-acetylglucosamine or N-acetylgalactosamine using same and kit for use in the quantitative analysis” (Noda Institute for Scientific Research, priority 1988, dated 1991)
